Test in all cases: NCI tumour cell line growth inhibition, 48 h
Experiment [1] relates to M19-MEL.
For experiment [2], the system named is HOP-18.
The test system of experiment [3] is DMS-114.
The subject of experiment [4] is RXF 631.
For experiment [5], the system named is SNB-78.
Experiment [6] deals with DLD-1.
For experiment [7], the system named is DMS-273.
The test system of experiment [8] is KM-20L2.
Experiment [9] relates to XF498.

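Step 1: Grow cells in 96-well plates. Step 2: Expose to compound for 48 hours at 5 concentrations. Step 3: Interpolate endpoints linearly; if unreached, use highest concentration. At the GI50, growth is halved.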 The source made the active and inactive calls. Rule as the data show it: active = GI50 up to about 1.1 µM and inactive = higher.

As for `COc1ccccc1NC(=O)C(=O)C1C(=O)Nc2ccccc2[S+]1[O-]` (stereo not drawn), the GI50 in [1], in [2], in [3], in experiment [4], in experiment [5] and in [6] was > 100 µM (inactive) throughout. The GI50 in experiment [7], in experiment [8] and in experiment [9] was > 100 µM (inactive) in each case.

In the case of `COc1ccc(S(=O)(=O)N/N=C(\C)CN2C(=O)c3ccccc3C2=O)cc1OC`, the GI50 in experiment [1], in [2], in experiment [3], in experiment [5], in experiment [6] and in experiment [7] was > 100 µM (inactive) each time. For the same compound, the GI50 in experiment [8] and in experiment [9] was > 100 µM (inactive) each time.

In the case of `Cc1cc(C)c2c(c1C)CN1CN2Cc2c(C)c(C)cc(C)c21`, the GI50 in [1] was 30.5 µM (inactive); in experiment [2] it was 83.6 µM (inactive); in experiment [3], 2.92 µM (inactive); in [5], 42.6 µM (inactive); in experiment [6] it was 20.8 µM (inactive); in experiment [7] it was 6.56 µM (inactive).

`O=c1/c(=C/c2ccco2)sc2nc3ccccc3n12`: the GI50 is > 10 µM (inactive) in experiment [1]; > 100 µM (inactive) in experiment [2]; > 10 µM (inactive) in [3]; > 10 µM (inactive) in experiment [4]; > 10 µM (inactive) in experiment [5]; > 10 µM (inactive) in experiment [6]. The GI50 was 86.5 µM (inactive) in experiment [7], > 10 µM (inactive) in [8] and > 10 µM (inactive) in [9].

As to `O=C(NC(=O)c1ccccc1[N+](=O)[O-])Nc1ccc(Oc2ncc(Cl)cn2)c([N+](=O)[O-])c1`, the GI50 in [1] is 0.135 µM (active); in [2] it was > 100 µM (inactive); in experiment [3], 0.0865 µM (active); in experiment [4], 0.286 µM (active); in [5], 0.252 µM (active); in [6], 0.217 µM (active). Besides, the GI50 is 0.0738 µM (active) in [7], 0.121 µM (active) in experiment [8] and 0.818 µM (active) in [9].

Regarding `N#CC1CCCCC1NC1(C#N)CCCCC1` (stereo not drawn), the GI50 in [3], in experiment [5], in experiment [6], in [7], in experiment [8] and in experiment [9] was > 100 µM (inactive) throughout.

On to `c1ccc([S+](c2ccccc2)c2ccc(Sc3ccc([S+](c4ccccc4)c4ccccc4)cc3)cc2)cc1`, for which the GI50 in experiment [1] is 18.1 µM (inactive); in experiment [2] it was 30.5 µM (inactive); in experiment [3], 3.2 µM (inactive); in [4], 58.2 µM (inactive); in experiment [5], 27.9 µM (inactive); in [6] it was 29.2 µM (inactive). Also, the GI50 is 19.5 µM (inactive) in experiment [7], 16.8 µM (inactive) in experiment [8] and 11.4 µM (inactive) in experiment [9].

On to `Cc1cc(=O)oc2c1cc(OCC(=O)OCCN1CCCCC1)c1occ(C)c12`, for which the GI50 in experiment [1], in [2], in [3], in experiment [5], in experiment [6] and in experiment [7] was > 100 µM (inactive) each time. For the same compound, the GI50 in experiment [8] and in [9] was > 100 µM (inactive) throughout.

On to `CC#CC1/C(=C\C(=O)OC)CCCC1O` (stereo not drawn), for which the GI50 in experiment [1], in experiment [3], in experiment [5], in experiment [6], in experiment [7] and in experiment [9] was > 100 µM (inactive) in each case.

Turning to `CC(=O)NC(CCCNC(=O)OCc1ccccc1)C(=O)NCc1ccccc1` (stereo not drawn), the GI50 in experiment [1], in [3], in [6], in experiment [7], in [8] and in experiment [9] was > 100 µM (inactive) in each case.

In the case of `COC(=O)C(C(=O)C(=O)Nc1ccccc1C)c1nc2ccc([N+](=O)[O-])cc2nc1O` (stereo not drawn), the GI50 in [1], in experiment [2], in experiment [3], in [5], in experiment [6] and in [7] was > 100 µM (inactive) each time. Also, the GI50 in experiment [8] and in experiment [9] was > 100 µM (inactive) each time.

`CNC(=O)N(CCCC(NC(C)=O)C(=O)NCc1ccccc1)Cc1ccccc1` (stereo not drawn): the GI50 in [1], in [3], in [5], in [6], in [7] and in experiment [8] was > 100 µM (inactive) in each case. For the same compound, the GI50 in experiment [9] was > 100 µM (inactive).

Consider `COC(=O)CC[C@@H](NC(=O)C(C)NC(=O)COC1C(O)C(COC(=O)CCCCCCCCCCNC(=O)c2ccc([N+](=O)[O-])c3[nH]c4cc(Br)ccc4c(=O)c23)OC(OCc2ccccc2)C1NC(C)=O)C(N)=O` (stereo partly drawn), for which the GI50 in experiment [1] is 50.8 µM (inactive); in [2], 35.7 µM (inactive); in experiment [3] it was 35.6 µM (inactive); in experiment [5] it was 71.8 µM (inactive); in experiment [6], 35.4 µM (inactive); in [7] it was > 100 µM (inactive). Besides, the GI50 in experiment [8] and in experiment [9] was > 100 µM (inactive) in each case.

Regarding `CCCCCCc1cc2c(C)c(C)c(=O)oc2cc1OCCCOc1cc2oc(=O)c(C)c(C)c2cc1CCCCCC`, the GI50 in [1], in experiment [2], in experiment [3], in experiment [5], in [6] and in [7] was > 100 µM (inactive) in each case. For the same compound, the GI50 in experiment [8] and in experiment [9] was > 100 µM (inactive) in each case.

Consider `CCOC(=O)C(C)(C)Oc1ccc2c(C)c(-c3ccc(Cl)cc3)c(=O)oc2c1`, for which the GI50 in [1] is 54.2 µM (inactive); in experiment [3], 20.4 µM (inactive); in [4], 32.6 µM (inactive); in [6] it was 47.6 µM (inactive); in experiment [7] it was 37.6 µM (inactive); in experiment [8], 33.2 µM (inactive). Also, the GI50 in experiment [9] is 20.3 µM (inactive).

With `C=C1C(=O)C23CC1CCC2C12CO[C@@]3(O)[C@@H](O)C1C(C)(C)C=CC2=O` (stereo partly drawn), the GI50 in experiment [1] is 0.824 µM (active); in experiment [2] it was 1.19 µM (inactive); in [4] it was 1.03 µM (active); in experiment [5], 0.718 µM (active); in experiment [6], 0.721 µM (active); in experiment [7] it was 0.568 µM (active). Moreover, the GI50 in experiment [8] was 1.44 µM (inactive); in experiment [9] it was 0.791 µM (active).

Turning to `CSc1ccc2c(cc1=O)[C@@H](NC(=O)c1cc(O)c(O)c(O)c1)CCc1cc(O)c(O)c(O)c1-2`, the GI50 in experiment [1] was 14.6 µM (inactive); in [4], 15.5 µM (inactive); in experiment [5], 31 µM (inactive); in experiment [6], 21.2 µM (inactive); in experiment [7], 20.5 µM (inactive); in experiment [8], 68.7 µM (inactive). Besides, in [9], the GI50 is 15.4 µM (inactive).

Regarding `O=c1[nH]c2ccccc2nc1CBr`, the GI50 is 10.2 µM (inactive) in experiment [1]; 6.93 µM (inactive) in [2]; 16.1 µM (inactive) in [5]; 8.87 µM (inactive) in experiment [6]; 1.61 µM (inactive) in [7]; 14.1 µM (inactive) in experiment [8]. In addition, the GI50 in [9] is 1.9 µM (inactive).

Consider `C=C1CC2C(=O)N(c3ccccc3)C(=O)C2CC1n1[nH]c(=O)n(Cc2ccccc2)c1=O` (stereo not drawn), for which the GI50 in [1], in experiment [2], in experiment [5], in experiment [6], in experiment [7] and in [8] was > 100 µM (inactive) in each case. Moreover, in experiment [9], the GI50 is > 100 µM (inactive).

For the compound `Cc1ccc2nc3c(C(=O)NCCN(C)C)cccc3nc2c1`, the GI50 in [1] was 2.44 µM (inactive); in experiment [2], > 27.1 µM (inactive); in [3] it was 2.74 µM (inactive); in experiment [5] it was 7.31 µM (inactive); in experiment [7], 2.84 µM (inactive); in experiment [8] it was 3.53 µM (inactive).

Turning to `NC(=O)COc1ccc(Br)cc1Br`, the GI50 in experiment [1], in experiment [2], in [3], in experiment [5], in experiment [6] and in experiment [7] was > 100 µM (inactive) in each case. In [8], the GI50 was > 100 µM (inactive).

For `N/N=C(\c1nc2ccc(Cl)cc2nc1O)C(O)c1ccc(Cl)c(Cl)c1` (stereo not drawn), the GI50 is > 100 µM (inactive) in [1]; > 100 µM (inactive) in experiment [3]; > 100 µM (inactive) in experiment [4]; > 100 µM (inactive) in experiment [5]; 46.7 µM (inactive) in [6]; 81.1 µM (inactive) in experiment [7]. For the same compound, the GI50 in experiment [8] and in experiment [9] was > 100 µM (inactive) in each case.

Turning to `CC(=O)OC[C@@H](COC(=O)/C=C/c1ccc(O)cc1)OC1OC(CO)C(O)C(O)C1O` (stereo partly drawn), the GI50 in experiment [1], in [2], in experiment [4], in experiment [5], in [6] and in experiment [8] was > 100 µM (inactive) in each case. The GI50 in [9] was > 100 µM (inactive).

On to `C/C=C1\CN2CCc3c([nH]c4ccccc34)C2CC1C(=O)OC` (stereo not drawn), for which the GI50 in experiment [6], in [7], in [8] and in experiment [9] was > 322 µM (inactive) in each case.

For `S=c1c2ccccc2c(=S)n2n1CC=CC2`, the GI50 in experiment [1], in experiment [2], in experiment [3], in experiment [4], in [5] and in [6] was > 100 µM (inactive) each time. Moreover, the GI50 in experiment [7] and in [8] was > 100 µM (inactive) throughout.
